Data on one substance can be found in patent US20250319206A1, “CRISPR/CAS GENE EDITING OF NEH4 AND/OR NEH5 DOMAINS IN NRF2” (Christina Care Gene Editing Institute, Inc., priority 2024, published 2025).

This data set relates to Panc-1 cells. Kind of data set: Cell viability with gemcitabine, CellTiter-Glo 2.0, Panc-1 cells. As to conditions: Panc-1 cells, in the absence of gemcitabine. Type of data set: cell-based, Human. On the procedure: Wildtype and transfected Panc-1 cells were plated to 24 well plates (n=5) at 50,000 cells per well and placed in incubator for 24 hours. The cells were then treated with either Gemcitabine (Selleckchem, Cat. S1714) or DMSO (Thermo Fisher, Cat. D12345). Cells treated with Gemcitabine were treated at one of the following concentrations: 0 μM, 2.5 μM, 5 μM, 25 μM while cells treated with DMSO were treated at: 0%, 0.025%, 0.05%, or 0.25%. Cells remained in Gemcitabine or DMSO for 72 hours before being evaluated using CellTiter-Glo 2.0 Cell Viability Assay (Promega, Cat. G9241).
Since our long-term objective is to develop an effective genetic treatment that would augment standard care, we decided to examine the possibility that we could restore sensitivity to gemcitabine by genetic editing of NRF2 in gemcitabine resistant Panc1 cells. We are using gemcitabine as a selection system to determine if gene editing at some level, can help restore tumor cell killing. We established the kill curve of Panc1 unedited cells by gemcitabine under our standard reaction conditions to serve as a baseline. […] Again, after 72 hours, each cell population was exposed to gemcitabine for an additional 72 hours and thereafter cell viability of the treated and untreated cells was measured using the Cell Titer 2.0 viability assay (Promega, Madison, WI, USA). […]
(In general: In ATP-based viability assays light output follows the ATP content of the culture.)

On to “sg83: gRNA targeting exon 4 of NRF2; GTAGCCCCTGTTGATTTAGA CGG (guide GTAGCCCCTGTTGATTTAGACGG; listed as DNA, chemistry not given here)”, for which the cell killing entry is on record as “approximately 40%”.
